Source: ChEMBL document CHEMBL1159286, “New secosteroids from an undescribed gorgonian of the genus Muricella” (J Nat Prod, 1995)
Values after ≈ are worked out from the molar mass of the structure shown.

Columns and labels:
Artemia = assay: Toxicity against brine shrimp larvae; type: organism-based; conditions: in vivo
Human alphaherpesvirus 1 = assay: Antiviral activity against HSV1; type: functional, organism-based
Enterovirus C = assay: Antiviral activity against Poliovirus; type: functional, organism-based
Human alphaherpesvirus 2 = assay: Antiviral activity against HSV2; type: functional, organism-based

Structure (SMILES)	LD50 (Artemia) [ppm]	EC50 (Human alphaherpesvirus 1) [µg/mL]	EC50 (Enterovirus C) [µg/mL]	EC50 (Human alphaherpesvirus 2) [µg/mL]
Cc1ccc(O)cc1CC[C@@H]1C(=O)CC[C@]2(C)[C@@H]([C@H](C)/C=C/CC(C)C)CC[C@@H]12 [CALICOFEROL A]	1.8	–	–	–
Cc1ccc(O)cc1CC[C@@H]1[C@H](O)CC[C@]2(C)[C@@H]([C@H](C)CCCC(C)C)[C@@H](O)C[C@@H]12 [CALICOFEROL B]	2.3	–	–	–
C=C(CC[C@@H](C)[C@H]1CC[C@H]2[C@H](CCc3cc(O)ccc3C)[C@H](O)CC[C@]12C)C(C)C [CALICOFEROL C]	> 100	–	–	–
Cc1ccc(O)cc1CC[C@@H]1C(=O)CC[C@]2(C)[C@@H]([C@H](C)/C=C/C(C)C(C)C)CC[C@@H]12 (some centres undefined) [CALICOFEROL D]	37	1.2 (≈ 2.92 µM)	0.4 (≈ 0.974 µM)	1.2 (≈ 2.92 µM)
Cc1ccc(O)cc1CC[C@@H]1C(=O)CC[C@]2(C)[C@@H]([C@H](C)CCCC(C)C)CC[C@@H]12 [CALICOFEROL E]	> 100	–	–	–
Cc1ccc(O)cc1CC[C@@H]1[C@H](O)CC[C@]2(C)[C@@H]([C@H](C)CCCC(C)C)CC[C@@H]12 [ASTROGORGIADIOL]	> 100	–	–	–
